Patent publication US5200549A, “Antipsoriatic agents” (Hoffman-La Roche Inc., priority 1991, dated 1993)

Assays:
human keratinocytes = assay: Inhibition of proliferation of cultured human keratinocytes (cell count by Coulter Counter); type: cell-based; details: Keratinocyte, 168 h, seven days, triplicate, read-out: Percent Inhibition on Keratinocyte Proliferation; for inhibition at 1 µM: 10^-6 M; for inhibition at 0.1 µM: 10^-7 M; for inhibition at 0.01 µM: 10^-8 M; for inhibition at 0.0001 µM: 10^-10 M
Experimental: Human neonatal foreskins were collected by circumcision and placed into tubes containing DMEM media. Upon arrival at the laboratory the foreskins were mechanically trimmed of excess dermis and treated with a solution of trypsin/EDTA (0.05%/0.02%) at 4° C. overnight. The epidermis was stripped from the dermis, agitated in buffered saline to remove basal keratinocytes and to separate the stratum corneum which was subsequently removed. The separated cells were centrifuged, resuspended in media, counted and the keratinocytes were plated onto a plain plastic culture dish.
The keratinocytes were plated at a density of about 10^5 cells/cm^2in 35 cm^2 dishes. The cells were grown in keratinocyte growth media (KGM®-modified MCDB 153 containing antibiotics by Clonetics of Boulder, Colo.) according to protocols originally developed by Boyce, S. T. and Ham, R. G., J. of Tissue Culture Meth. 9:83-93 (1985). The cells were grown for 5-10 days and changed every 2-3 days with keratinocyte growth media containing 1.5 mM CaCl2 (hereinafter KGM®/1.5 mM CaCl2) until cells reached a 75% confluency by visual observation. All the cultures were incubated in a humidified atmosphere of 5% CO2 at 37° C.
To establish keratinocyte cell cultures as antiproliferative assays, cells prepared as described in the foregoing were washed with PBS and removed from the culture surface with a solution of trypsin/EDTA (0.25%/0.03%). The removed cells were then centrifuged, resuspended in the KGM®/1.5 mM CaCl2 and counted. The cells were then distributed to 6 well plates at 100,000 cells per well as described in the foregoing. […] After 24-48 hours KGM®/1.5 mM CaCl2 which contained test compounds was added to the cells. The cultures maintained for seven days. The media was changed every 2-3 days.
Solutions of the test compounds were prepared as follows: 1 milligram quantities were received in amber glass vials, and stored at -20° C. Sufficient 100% ethanol was added directly to vials to obtain a millimolar solution that was subsequently aliquoted into small amber vials, overlayed with argon gas and stored at -20° C. Each stock solution was thawed once, used and discarded. Aliquots from the stock solutions were diluted directly into medium and then serially diluted from micromolar to 10^-12 M concentrations. Dilutions from 10^-7 M to 10^-12 M had ethanol added for a final concentration of 0.1%. Stock solutions were used within one month. Control cultures were treated with 0.1% ethanol.
For each experiment every culture well received the same number of cells from the same culture source. At the termination of the experiment the number of cells per was determined by the following procedure. Wells were washed twice with PBS and then incubated for approximately 10-20 minutes at 37° C. with a trypsin/EDTA solution (0.25%/03%). PBS plus 0.1% soybean trypsin inhibitor was added and the cells were suspended. An aliquot of the cells was placed into isotonic buffered saline and counted on an electronic particle counter (e.g. Coulter Counter® device by Coulter Electronics of Hialeah, Fla.).
Quantification of proliferation was done by enumerating the number of keratinocyte cells in each well using the Coulter Counter®. Results shown in Table 1 below show the percent reduction of keratinocyte cell number calculated for each of 4 concentrations of test compounds tested according to the formula: [formula]
For statistical analysis, the mean was calculated for all wells in each treatment group. Standard error was determined by nonbiased analysis using a value for the number of wells in each group, preferably N=3.
Each compound was tested in triplicate. The control (ETOH), as noted above, was 0.1% ethanol.

[1] = test system: Cholesterol Biosynthesis in HepG2 Cells; assay: Inhibition of cholesterol biosynthesis in HepG2 cells (3H2O incorporated into cholesterol); type: cell-based; details: for activity as cholesterol biosynthesis inhibitors: HepG2 cells, in words; for IC50: Homo sapiens
Experimental: HepG2 cells are maintained in 175 cm^2 T flasks in Darlington Medium supplemented with 10% fetal bovine serum (FBS). Darlington Medium consists of 3 parts Minimal Essential Medium, 1 part Waymouth's MAB87/3 medium and 3×10^-8 M sodium selenite. This medium is supplemented with 100 U/ml penicillin, 100 ug/ml streptomycin and 2.5 ug/ml Fungizone. In order to establish optimal conditions for the whole cell cholesterol biosynthesis assay, preliminary experiments were performed. 0.25, 0.5, 0.75 or 1×10^6 cells were seeded into 6 well cluster plates in 2 ml of fully supplemented Darlington Medium. The serum supplemented medium was aspirated after 72 hours and replaced with serum free Darlington Medium with antibiotics. After 24, 48 or 72 hours serum free, the cells received either 0.5 or 1 mCi ^3 H2 O/ml medium. This medium was aspirated after 24 hours and the cells were washed twice with phosphate buffered saline. The cells were frozen overnight at -20° C. after which they were harvested from the wells with 1 ml of trypsin-EDTA. Extracted lipids were separated on an HPLC system; cholesterol peaks were collected and counted in a scintillation counter. Results are expressed as the dpm ^3 H2 O incorporated into cholesterol.
In the screening assay the cells received compounds at various concentrations concommitantly with ^3 H2 O. When ethanol was the vehicle, the final ethanol concentration was 0.5%, and control wells with that concentration of ethanol were used in each experiment. Results are expressed as the percent dpm ^3 H2 O incorporated into cholesterol in treated vs control wells. IC50 values are calculated using a linear regression analysis.

With `C[C@H]1C=C2C=C[C@H](C)[C@H](CC[C@@H]3C[C@@H](O)CC(=O)O3)[C@H]2[C@@H](OC(=O)C(C)(C)Oc2ccc(Cl)cc2)C1` [A, 2-(4-chlorophenoxy)-2-methylpropionic acid [1S-[1α,3α,7β,8β(2R*, 4R*),8aβ]]-1,2,3,7,8,8a-hexahydro-3,7-dimethyl-8-[2-[tetrahydro-4-hydroxy-6-oxo-2H-pyran-2-yl]ethyl]-1-naphthalenyl ester] the inhibition at 1 µM (human keratinocytes) was 49.7%, the inhibition at 0.1 µM (human keratinocytes) was 15.2% and the inhibition at 0.01 µM (human keratinocytes) was 6.28%. For the same molecule, the inhibition at 0.0001 µM (human keratinocytes) was 20.9%, the “activity as cholesterol biosynthesis inhibitors” value [1] was “show activity as cholesterol biosynthesis inhibitors” and the IC50 ([1]; HepG2, Test I) was 30 nM. For the same molecule, the IC50 ([1]; HepG2, Test II) was 500 nM and the IC50 ([1]; HepG2, Test III) was 101 nM.

`C[C@H]1C=C2C=C[C@H](C)[C@H](CC[C@@H]3C[C@@H](O)CC(=O)O3)[C@H]2[C@@H](OC(=O)C(C)(C)C(C)(F)F)C1` [Compound B, 3,3-difluoro-2,2-dimethylbutanoic acid, [1S-[1α,3α,7β,8β(2R*,4R*)8aβ]]-8-[2-[tetrahydro-4-hydroxy-6-oxo-2H-pyran-2-yl]ethyl]-1,2,3,7,8,8a-hexahydro-3,7-dimethyl-1-naphthalenyl ester] was tested, and the inhibition at 1 µM (human keratinocytes) was 95.8%, the inhibition at 0.1 µM (human keratinocytes) was 31.2% and the inhibition at 0.01 µM (human keratinocytes) was 14.6%. For the same molecule, the inhibition at 0.0001 µM (human keratinocytes) was 18%, the “activity as cholesterol biosynthesis inhibitors” value [1] was “show activity as cholesterol biosynthesis inhibitors” and the IC50 ([1]; HepG2, Test IV) was 5 nM.

In the case of `CC[C@H](C)C(=O)O[C@H]1C[C@@H](C)C=C2C=C[C@H](C)[C@H](CC[C@@H]3C[C@@H](O)CC(=O)O3)[C@H]21` [mevinolin, reference compound], the IC50 ([1]; HepG2, Test I) is reported as 20 nM, the IC50 ([1]; HepG2, Test II) is reported as 100 nM and the IC50 ([1]; HepG2, Test III) is reported as 76 nM. It also gave an IC50 ([1]; HepG2, Test IV) of 8 nM.
